Here are results for two molecules from patent US20070112026A1, “Carbostyril derivatives for accelerating salivation” (priority 2003, published 2007).

Data set [1] deals with non-anesthetized rats. The data set can be described thus: Salivation amount in non-anesthetized rats after intragastric administration (esophagus diverticulum collection). The format is in vivo. The conditions noted are these: saliva collected for 4 hours, average ± standard error. The protocol: The effects of the present active compound by intragastric administration in non-anesthetized rats with respect to the salivation were studied as mentioned below. Using non-anesthetized rats, the saliva being swallowed for 4 hours on awaking into the diverticulum placed at the esophagus was collected and the salivation amount (g) was measured. Vehicle (0.5% sodium carboxymethyl cellulose solution) or Rebamipide 10, 30 or 100 mg/kg was intragastrically administered once when the esophagus diverticulum was set, and as a result, the average ± standard error of the salivation amount was 0.88±0.23 g (n=7) in the vehicle-treated group, 0.99±0.21 g (n=8) in the Rebamipide (10 mg/kg)-treated group, 1.37±0.26 g (n=7) in the Rebamipide (30 mg/kg)-treated group, and 1.72±0.40 g (n=8) in the Rebamipide (100 mg/kg)-treated group.

Data set [2] concerns patients with Sjögren's syndrome. In words: Effects on xerostomia in patients with Sjögren's syndrome (subjective symptom scores, Saxon Test, overall evaluation). The format is in vivo, human. The conditions noted are these: for Salivation amount (Saxon test) / Total scores of subjective symptoms: 100 mg tablet orally three times per day, 21 patients; for Salivation amount (Saxon test): 1.29±1.00 g before administration; for Total scores of subjective symptoms: 9.6±4.1 before administration; for Overall evaluation: "Effective" / Overall evaluation: "Non-effective" / Overall evaluation: "Remarkably effective": of 21 patients. The protocol: The effects of the present active compound on xerostomia in patients with Sjögren's syndrome was tested. The test was carried out for 21 patients (age: 27 to 85 years old, all female) who were diagnosed as surely having Sjögren's syndrome on the basis of Revised Diagnosis Standard for Sjögren's syndrome (issued by Ministry of Health, Labour and Welfare in Japan in 1999). Tablet containing 2-(4-chlorobenzoylamino)-3-(2-quinolon-4-yl)propionic acid (100 mg per tablet) was orally administered three times per day immediately after a meal (one tablet for each time) for 8 weeks. i) Evaluation by patients themselves as to subjective symptoms (e.g. feeling of dryness of the mouth, hydromania, pain in the mouth, taste disorder, difficulty in dietary intake, abnormality of saliva) before administration of tablet, after administration of tablet for 4 weeks and 8 weeks, respectively. […] Based on the salivation amount thus measured, the increasing rate of salivation was determined by the following equation: [formula] The effects of the test compound were evaluated based on both of the improvement of subjective symptoms and the salivation amount, which was classified in three degrees as follows. “Remarkably effective: Both of the improved rate of subjective symptoms and the increasing rate of salivation being more than 50%; “Effective”: Either of the improved rate of subjective symptoms or the increasing rate of salivation being more than 50%; “Non-effective”: Neither the improvement of subjective symptoms nor the increasing of salivation being observed. The experimental results were statistically evaluated in accordance with Wilcoxon's rank test.

The test system of data set [3] is patient suffering from mouth dryness accompanying Sjögren's syndrome. The data set can be described thus: Case of a patient suffering from mouth dryness accompanying Sjögren's syndrome (Saxon test). The format is in vivo, human. To be noted: for Subjective symptoms: 300 mg/day started May 29, 2003; for Salivation amount (Saxon test): 300 mg/day started May 29, 2003 (0.89 g at start), one patient. An excerpt:
Effects of the present compound 2-(4-chlorobenzoyl-amino}-3-(2-quinolon-4-yl)propionic acid on a patient suffering from mouth dryness accompanying Sjögren's syndrome:
(1) Patient: A person.
(2) Chief Complaint: Cotton Mouth, Mattering of Eyes.
The symptoms of the mouth dryness were significant dry of toungue and significant lowering of salivaition (0.52 g in Saxon test). No swelling of parotid gland. Eye dryness was Silmer test (right 2 mm, left 1 mm), Rose bengal test (3+). No inflammation of the eye. Examination findings were ESR 17 mm/hr., WBC 5500/μL, RBC 484×10^4/μL, Hgb 13.4 g/dL, T.P. 8.4 g/dL, Alb 4.4 g/dL, AST 17 IU/mL, ALT 9 IU/mL, Amylase 140 IU/L, CK 46 IU/L, Cr 0.69 mg/dL, BUN 14.0 mg/dL, CRP<0.3 mg/dL, ANA 640 folds (speckled pattern), anti-SS-A antibody 126 times, Anti-SS-B antibody, negative, IgG 2270 mg/dL, IgA 368 mg/dL, IgM 132 mg/dL, and immune complex, Ciq solid-phase method, 3.3 (positive). (5) Clinical Course:
Administration of 2-(4-chloro-benzoylamino)-3-(2-quinolon-4-yl)propionic acid (300 mg/day)was started on May 29, 2003. […] 25, 2003 and then the subjective symptoms were improved. The salivation amount more increased to 1.86 g on Jul. 23, 2003 and then the subjective symptoms were also more improved.

In data set [4] the test system is anesthetized rats. In words: Salivation amount in anesthetized rats after intravenous administration. The format is in vivo. To be noted: for Salivation amount: over 20 minutes, average ± standard error; for Salivation amount, comparison with the vehicle-treated group: vehicle = 100. As to the method:
The effects of the present active compound on salivation in anesthetized rats were studied as mentioned below. Models for studying salivation were prepared according to the method of Masunaga, et al. (Masunaga, H., et al., Long-lasting salivation induced by a novel Muscarinic receptor agonist SNI-201 in rats and dogs. Eur. J. Pharmacol., 339: 1-9, 1997). Namely, rats had been fasted from the day before the experiment except that the intake of water was freely allowed, and the rats were anesthetized with Nembutal (=pentobarbital sodium). The rats were put down on the back, and the neck was subjected to midline incision. An ATOM anionic fluid suction catheter of 6Fr. was inserted to the air tube in order to keep the airway clear. Next, a polyethylene tube (SP55 Natsume) containing a solution of 10 U/ml heparin in physiological saline was inserted into the […] for administration of a medicament. A 0.03 mg/ml or 0.1 mg/ml solution of the test compound (2-(4-Chlorobenzoylamino)-3-(2-quinolon-4-yl)-propionic acid; general name: Rebamipide) in 2% aqueous sodium hydrogen carbonate solution, and a vehicle (2% aqueous sodium hydrogen carbonate solution) as a control solution were used, and the test compound solution and the control solution in an amount of 1 mL/kg were respectively administered intravenously via the polyethylene tube inserted into the […]. Then, the salivation amount was measured every 10 minutes for 20 minutes with using cotton swabs, and the salivation amount per one minute was calculated from the total salivation amount for this period. In this measurement, the salivation amount was measured in such a way that the dried cotton swab (the weight thereof was previously measured) was inserted into the mouth of rat, and the swab was exchanged with a new dried one in every ten minutes, and the total salivation amount was calculated from the difference in the weight of the swab between before and after inserting into the mouth. The average salivation amount was calculated as measured in the vehicle-treated group (5 animals), the test compound (0.03 mg/kg)-treated group (5 animals) and the test compound (0.1 mg/kg)-treated group (4 animals), and the percentage of the average salivation amount in the test compound-treated groups against that of the vehicle-treated group was calculated.

The test system of data set [5] is patient with Sjögren's syndrome. In words: Patient record: earlier treatments of the same Sjögren's syndrome patient. Format: in vivo, human. To be noted: earlier treatment of the patient of Experiment 4. As to the method:
Around February 1999, the patient visited a hospital in view of dryness of mouth and difficulty in tearing. Then, they were diagnosed to have Sjögren's syndrome in view of antinuclear antibody: 160 times, anti-SSR-A antibody: 126 times, Gum test: 8 ml, lowered function of salivary gland, ophthalmic Silmer test (right 4 mm, left 3 mm), dry kerato-conjunctivitis. […] Besides, Salivate spray was also applied but it was not effective and discontinued. After moving their home because of marriage, their hospital was change on May 1, 2003. Before the changing the hospital, an ophthalmic drop containing chondroitin sulfate has frequently been used for treating dry conjunctivitis.

On to `O=C(NC(Cc1cc(=O)[nH]c2ccccc12)C(=O)O)c1ccc(Cl)cc1` (centres unmarked) [Rebamipide, 2-(4-Chlorobenzoylamino)-3-(2-quinolon-4-yl)-propionic acid], for which the Salivation amount in data set [1] (10 mg/kg intragastric once, n=8) turned out to be 0.99 ± 0.21 g; in data set [1] (30 mg/kg intragastric once, n=7) it was 1.37 ± 0.26 g; in data set [1] (100 mg/kg intragastric once, n=8) it was 1.72 ± 0.40 g; in data set [4] (0.03 mg/kg intravenous, n=5, listed as Test compound), 0.262 ± 0.084 mg/min; in data set [4] (0.03 mg/kg intravenous, n=5, listed as test compound), 0.262 ± 0.084 mg/min; in data set [4] (0.1 mg/kg intravenous, n=4, listed as Test compound), 0.305 ± 0.097 mg/min. The Salivation amount in data set [4] (0.1 mg/kg intravenous, n=4, listed as test compound) is 0.305 ± 0.097 mg/min. The Effectiveness in data set [2] (after 4 weeks) is given as 52.4%; in data set [2] (after 8 weeks), 61.9%. Also, the “Salivation amount (Saxon test)” value in data set [2] (after 4 weeks) stood at 1.95 ± 1.21 g; in data set [2] (after 8 weeks), 1.93 ± 1.14 g; in data set [3] (Jul. 23, 2003) it was 1.86 g; in data set [3] (Jun. 25, 2003) it was 1.55 g. Also, the “Total scores of subjective symptoms” value in data set [2] (after 4 weeks) stood at 6.6±3.2; in data set [2] (after 8 weeks), 5.2±2.6. Besides, the “Overall evaluation: "Effective"” value in data set [2] (after 4 weeks) amounted to 9 patients; in data set [2] (after 8 weeks), 7 patients. Further, the “Overall evaluation: "Non-effective"” value in data set [2] (after 4 weeks) is reported as 10 patients; in data set [2] (after 8 weeks), 8 patients. Moreover, the “Overall evaluation: "Remarkably effective"” value stood at 2 patients in data set [2] (after 4 weeks) and 6 patients in data set [2] (after 8 weeks). In addition, the Subjective symptoms result in data set [3] (Jul. 23, 2003) is recorded as “more improved”; in data set [3] (Jun. 25, 2003), “improved”. The “Salivation amount, comparison with the vehicle-treated group” value in data set [4] (0.03 mg/kg intravenous) is 205%; in data set [4] (0.1 mg/kg intravenous), 239%.
For the molecule `C[C@@H]1O[C@@]2(CS1)CN1CCC2CC1.Cl` [Sebimerine hydrochloride], in data set [5], the “Side effects leading to stop of administration” value is “abdominal discomfort and stomach ache”.
